# Patent US5736384A (priority 1994, dated 1998)
# Entries after “also recorded” stand apart in the source; their conditions may differ. Read-outs that look alike come from different tables or passages of the source.
# Key:
# [1] = system: XP1; assay: Effects of metal salts on enzyme activity of XP1; format: biochemical, Bacillus sp. 2113; settings: metal salt 1 mM, 4° C. overnight, also 1 mM in reaction mixture; None = 100
# Experimental: (§1) Various metal salts were added to each of the enzyme solutions to a concentration of 1 mM and retained at 4° C. overnight. Then, a metal salt of the same kind was also added to a reaction mixture to a concentration of 1 mM, and the enzyme activities of XP1 and XP2 were determined.
# [2] = system: XP2; assay: Effects of metal salts on enzyme activity of XP2; format: biochemical, Bacillus sp. 2113; settings: for Relative Activity(%) XP2: metal salt 1 mM, 4° C. overnight, also 1 mM in reaction mixture, None = 100; for inhibition of XP2 by metal ion (in words): 1 mM
# Experimental: as §1
# [3] = Determination of xylanase activity (DNS reducing sugar method); format: biochemical; settings: purified enzyme
# Experimental: (§2) Fifty microliters of a sample solution is added to 200 μl of 1% birch xylan (Sigma) solution (pH 6.5, in 1/10 McIlvaine buffer), and reacted at 70° C. for 5 minutes. Five hundreds microliters of DNS reagent is added thereto and boiled for 5 minutes. Then, the reaction mixture is immediately ice-cooled and 4 ml distilled water is added thereto. Thereafter, absorbance at 500 nm is measured. Calibration curves are prepared by using a xylose solution of known concentration.
# (§3) As to the unit of xylanase activity, one unit (U) was defined as the amount of enzyme which releases […] of reducing sugar per minute under the above conditions.
# Fifty microliters of the crude enzyme solution was added to 200 μl of 1% birch xylan (Sigma) solution (in 1/10 McIlvaine buffer, pH 6. 5), and reacted at 70° C. for 5 minutes.
# After addition of DNS reagent (500 μl) and subsequent boiling for 5 minutes, the reaction mixture was immediately ice-cooled and 4 ml of distilled water was added thereto. Then, absorbance at 500 nm was measured. Calibration curves were prepared by using a xylose solution of known concentration.
# As to the unit of xylanase activity, one unit (U) was defined as the amount of enzyme which releases 1 μmol of reducing sugar per minute under the above conditions. […]
# [4] = Optimum pH for reaction (enzyme activity measured at each pH); format: biochemical
# Experimental: (§4) For each of the enzymes, the optimum pH and pH stability were determined by using glycine-HCl buffer (pH 3 or below), acetate buffer (pH 4-5), sodium phosphate buffer (pH 6-7), Tris-HCl buffer (pH 8-9) and glycine-NaOH buffer (pH 9.1-10.1). The enzyme activity of each xylanase was measured at each of the pH values.
# as §2, §3
# [5] = Thermostability (residual activity after 30 min at a certain temperature); format: physicochemical; settings: 50 mM Tris-HCl buffer (pH 7.2)
# Experimental: In addition, after each enzyme was left in 50 mM Tris-HCl buffer (pH 7.2) for 30 minutes at a certain temperature, the enzyme activity was determined.
# [6] = Action: thin-layer chromatography of reaction products from birch xylan; format: biochemical; settings: 1% birch xylan, pH 7.0, 60° C., 10 U enzyme, TLC
# Experimental: To 5 ml of 1% birch xylan (Sigma) solution (pH 7.0, in 40 mM sodium phosphate buffer), 10 U of each of XP1 and XP2 was added and reacted at 60° C. After a certain reaction period, the reaction was terminated by boiling and 10 μl of the reaction mixture was subjected to thin-layer chromatography using HPTLC Kieselgel 60 F254 (Merk) as a thin layer and a mixture of n-butanol, acetic acid and water (10:5:1) as a developer. The coloring was carried out by spraying a diphenylamine-aniline reagent and heating at 120° C. for 10 minutes.
# The number of minutes shown in this FIG. represents the reaction time of the enzyme.
# [7] = Enzyme activity at different temperatures (optimum / appropriate temperature); format: biochemical
# Experimental: as §2, §3
# The enzyme activity of each enzyme was determined at different temperatures.
# [8] = Substrate specificity; format: biochemical
# [9] = pH stability (enzyme activity after two nights in buffer); format: physicochemical; settings: retained in 50 mM buffer for two nights
# Experimental: as §4
# In addition, each of the enzymes was retained in a certain 50 mM buffer for two nights and then the enzyme activity was determined.
# [10] = target: T1, XP1 (Paenibacillus sp. DG-22, UniProt A4GG22); assay: biochemical; format: biochemical, Bacillus sp. 2113; settings: for activity at 1000 µM: read-out: Relative Activity(%) XP1
# T1 sequence (A4GG22 29-211): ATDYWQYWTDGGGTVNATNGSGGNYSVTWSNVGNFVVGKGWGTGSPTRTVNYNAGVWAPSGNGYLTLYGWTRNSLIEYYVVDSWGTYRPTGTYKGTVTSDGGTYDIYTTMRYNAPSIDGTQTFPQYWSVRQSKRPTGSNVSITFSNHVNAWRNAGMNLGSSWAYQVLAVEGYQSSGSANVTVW
# Experimental: (§5) Various inhibitors and the like were added to each of the enzyme solutions to a concentration of 1 mM and retained at 4° C. overnight. Then, the same substance was also added to a reaction mixture to a concentration of 1 mM, and the enzyme activities of XP1 and XP2 were determined.
# [11] = system: XP2; format: biochemical, Bacillus sp. 2113
# Experimental: as §5
# [12] = system: XP1; assay: biochemical; format: biochemical, Bacillus sp. 2113; settings: inhibitor 1 mM, 4° C. overnight, also 1 mM in reaction mixture, None = 100; for activity at 1000 µM: read-out: Relative Activity(%) XP1
# Experimental: as §5
# [13] = target: T1, XP1; assay: Effects of metal salts on enzyme activity of XP1; format: biochemical, Bacillus sp. 2113; settings: 1 mM
# T1 sequence (A4GG22 29-211): as above
# Experimental: as §1
# [14] = inhibitor 1 mM, 4° C. overnight, also 1 mM in reaction mixture, None = 100
compound,measurement,setting,value
[Cl-].[Rb+] [RbCl],Relative Activity(%) XP1,[1],121%
same,Relative Activity(%) XP2,[2],98%
[Cl-].[Li+] [LiCl],Relative Activity(%) XP1,[1],128%
same,Relative Activity(%) XP2,[2],99%
[Ba+2].[Cl-].[Cl-] [BaCl2],Relative Activity(%) XP1,[1],137%
same,Relative Activity(%) XP2,[2],108%
[Ca+2].[Cl-].[Cl-] [CaCl2],Relative Activity(%) XP1,[1],106%
same,Relative Activity(%) XP2,[2],98%
[Cl-].[Cl-].[Co+2] [CoCl2],Relative Activity(%) XP1,[1],107%
same,inhibition of XP2 by metal ion (in words),[2],weakly inhibited
same,Relative Activity(%) XP2,[2],70%
[Cl][Al]([Cl])[Cl] [AlCl3],Relative Activity(%) XP1,[1],110%
same,Relative Activity(%) XP2,[2],100%
"XP1: thermostable xylanase from Bacillus sp. 2113 culture, active fraction eluted earlier; amino acid sequence SEQ ID NO: 1",specific activity,[3],1420 U/mg
same,optimum pH for reaction,[4],5-8
same,residual enzyme activity after 30 min treatment at 50° C.,[5]; 50° C.,≥ 90%
same,residual enzyme activity after 30 min treatment at 60° C.,[5]; 60° C.,≥ 50%
same,products formed upon acting on xylan,[6],xyloligosaccharides
same,optimum temperature for reaction,[7],70 °C
same,substrate specificity,[8],"act on prepared xylans such as birch xylan and oat spelt xylan, as well as xylan-containing materials such as hardwood kraft pulp and oat spelt bran; also recorded: acting on prepared xylans including birch xylan and oat spelt xylan, as well as xylan-containing materials including hardwood kraft pulp and oat spelt bran"
same,pH at which the xylanase is stable,[9],3.0-9.0
O=C(O)CN(CCN(CC(=O)O)CC(=O)O)CC(=O)O [EDTA],inhibition of XP1 by inhibitor (in words),[10],weakly inhibited
same,activity at 1000 µM,[10],59%
same,Relative Activity(%) XP2,[11],65%
same,inhibition of XP2 by inhibitor (in words),[11],weakly inhibited
[N-]=[N+]=[N-].[Na+] [NaN3],Relative Activity(%) XP1,[12],96%
same,Relative Activity(%) XP2,[11]; [14],109%
O=S(=O)([O-])[O-].[Fe+2] [FeSO4],Relative Activity(%) XP1,[1],165%
same,Relative Activity(%) XP2,[2],99%
[Cl][Mn][Cl] [MnCl2],Relative Activity(%) XP1,[1],99%
same,inhibition of XP2 by metal ion (in words),[2],weakly inhibited
same,Relative Activity(%) XP2,[2],74%
[Cl][Cu][Cl] [CuCl2],Relative Activity(%) XP1,[1],87%
same,inhibition of XP2 by metal ion (in words),[2],weakly inhibited
same,Relative Activity(%) XP2,[2],68%
CCCCCCCCCCCCOS(=O)(=O)O [SDS],inhibition of XP1 by inhibitor (in words),[10]; 1 mM,strongly inhibited
same,activity at 1000 µM,[12],0%
same,inhibition of XP2 by inhibitor (in words),[11]; 1 mM,strongly inhibited
same,Relative Activity(%) XP2,[11]; [14],0%
O=C(O)CI [Iodoacetic acid],inhibition of XP1 by inhibitor (in words),[10],weakly inhibited
same,activity at 1000 µM,[10],75%
same,Relative Activity(%) XP2,[11],76%
same,inhibition of XP2 by inhibitor (in words),[11],weakly inhibited
[Cl-].[Cl-].[Mg+2] [MgCl2],Relative Activity(%) XP1,[1],129%
same,Relative Activity(%) XP2,[2],103%
[Cl][Hg][Cl] [HgCl2],inhibition of XP1 by metal ion (in words),[13],strongly inhibited
same,Relative Activity(%) XP1,[1],24%
same,inhibition of XP2 by metal ion (in words),[2],strongly inhibited
same,Relative Activity(%) XP2,[2],0%
[Cl][Ni][Cl] [NiCl2],Relative Activity(%) XP1,[1],129%
same,Relative Activity(%) XP2,[2],93%
O[C@H](CS)[C@H](O)CS (racemic) [Dithiothreitol],activity at 1000 µM,[12],85%
same,Relative Activity(%) XP2,[11]; [14],82%
